The source of these data is EPA's ToxValDB 9.5.

One data set has as its system Monkey. The conditions noted are these: oral, Cynomolgus.
The subject of the next data set is Oryctolagus sp. The conditions noted are these: duration: 15 days, oral, F, New Zealand.
The mark [1] stands for this setting: chronic, duration: 26 weeks, M/F, Endocrine: Increased TSH and decreased total T3 + Hepatic: 47-55% increased absolute liver weight / 50-60% decreased serum cholesterol / ….
Where [2] appears, read: reproduction developmental, Body Weight: 21% decreased mean maternal body weight gain on GDs 7-21 / no effect on food consumption.

SMILES strings stand for the structures.

Broadly, the NOAEL is the highest dose or exposure tested at which no adverse effect was seen. The LOAEL is the lowest tested level that showed an adverse finding. Consider `O=S(=O)([O-])C(F)(F)C(F)(F)C(F)(F)C(F)(F)C(F)(F)C(F)(F)C(F)(F)C(F)(F)F.[K+]` [Potassium perfluorooctanesulfonate], for which the NOAEL in the data set with Monkey (chronic, duration: 26 weeks, F) worked out at 0.75 mg/kg-day; with Monkey (setting [1]) it was 0.15 mg/kg-day; with Monkey (chronic, duration: 26 weeks, M/F, Neurological: No histological alterations), 0.75 mg/kg-day; in the data set on Monkey (chronic, duration: 26 weeks, M, Body Weight: 13.5% reduction in final body weight), 0.15 mg/kg-day; with Monkey (chronic, duration: 315 days, M) it was 13.3 mg/kg-day; in the data set with Monkey (short-term, duration: 4 weeks, M/F, Immunotoxicological: No histological alteration + Reproductive: No histological alterations) it was 2 mg/kg-day. The no-observed-adverse-effect level (NOAEL) turned out to be 1 mg/kg-day with Oryctolagus sp. (developmental, Developmental: Decreased fetal body weight / 10% at […] and 24% at 3.75 mg/kg/day / 10/22 does aborted between GD 22 and 28 at 3.75 mg/kg/…); 0.1 mg/kg-day in the data set on Oryctolagus sp. (setting [2]). The LOAEL came to 0.75 mg/kg-day with Monkey (setting [1]); 0.75 mg/kg-day in the data set on Monkey (chronic, duration: 26 weeks, M, Body Weight: 13.5% reduction in final body weight + Reproductive: Significant decrease in serum estradiol on days 62 (48%), 91 (42%), and …); 13.3 mg/kg-day with Monkey (chronic, duration: 315 days, M, Endocrine: Decreased serum T4 / values still within normal range + Hepatic: Decrease in HDL cholesterol / values still within normal range); 1 mg/kg-day with Oryctolagus sp. (setting [2]).
